Test results: patent publication KR20140041632A, “제주조릿대 잎 추출물 또는 그로부터 분리된 파라-쿠마르산을 이용한 비만 및 지방간 개선제 조성물” (제주대학교 산학협력단, priority 2014, dated 2014)
“Also recorded” adds a separate entry of the source.

What was measured:
[1] = tested on: 3T3-L1 preadipocytes [3T3-L1 전구지방세포]; experiment: Inhibition of differentiation of 3T3-L1 preadipocytes into adipocytes (Oil Red O); assay type: cell-based; conditions: 3T3-L1, 100uM, treatment Day4 ~ Day8, Oil Red O 540nm; Fig. 11
LKB1 = experiment: Western blot of p-LKB1 in differentiated 3T3-L1 adipocytes; assay type: cell-based; conditions: Fig. 12
AMPK [2] = experiment: Western blot of p-AMPK in differentiated 3T3-L1 adipocytes; assay type: cell-based; conditions: Fig. 12
ACC [3] = experiment: Western blot of p-ACC in differentiated 3T3-L1 adipocytes; assay type: cell-based; conditions: Fig. 12
AMPK [4] = experiment: Western blot of p-AMPK in differentiated L6 cells; assay type: cell-based, rat; conditions: 48 h, Fig. 13
ACC [5] = experiment: Western blot of p-ACC in differentiated L6 cells; assay type: cell-based, rat; conditions: 48 h, Fig. 13
PPARα = experiment: Western blot of PPARα in differentiated L6 cells; assay type: cell-based, rat; conditions: 48 h, vs control, Fig. 14
AMPK [6] = experiment: Western blot of p-AMPK in HepG2 cells with induced fat accumulation; assay type: cell-based; conditions: HepG2, oleic acid 600uM, 24 h; Fig. 15
ACC [7] = experiment: Western blot of p-ACC in HepG2 cells with induced fat accumulation; assay type: cell-based; conditions: HepG2, oleic acid 600uM, 24 h; Fig. 15
[8] = several concentrations, vs control

O=C(O)/C=C/c1ccc(O)cc1 [p-쿠마르산, p-coumaric acid]
TG content / triglyceride accumulation [1]: 유의적으로 감소; also recorded: 중성지방의 축적을 억제
LKB1 phosphorylation (LKB1): 증가 and 농도 의존적으로 LKB1의 인산화, AMPK의 인산화 및 ACC의 인산화를 증가시킴
AMPK phosphorylation (AMPK [2]): 증가 and 농도 의존적으로 LKB1의 인산화, AMPK의 인산화 및 ACC의 인산화를 증가시킴
ACC phosphorylation (ACC [3]): 증가 and 농도 의존적으로 LKB1의 인산화, AMPK의 인산화 및 ACC의 인산화를 증가시킴
AMPK phosphorylation at highest concentration (AMPK [4]; 50uM): 현저한 증가
AMPK phosphorylation (AMPK [4]; [8]): 농도의존적으로 증가; also recorded: 농도 의존적으로 AMPK 및 ACC의 인산화를 증가시킴
ACC phosphorylation at highest concentration (ACC [5]; 50uM): 현저한 증가
ACC phosphorylation (ACC [5]; [8]): 농도의존적으로 증가; also recorded: 농도 의존적으로 AMPK 및 ACC의 인산화를 증가시킴
PPARα expression (PPARα): 증가 and 농도 의존적으로 PPARα 발현을 증가시킴
AMPK phosphorylation (AMPK [6]): 농도의존적으로 증가; also recorded: 농도 의존적으로 AMPK 및 ACC의 인산화를 증가시킴
ACC phosphorylation (ACC [7]): 농도의존적으로 증가; also recorded: 농도 의존적으로 AMPK 및 ACC의 인산화를 증가시킴
